Source: paper PMC8472965, “BmK86-P1, a New Degradation Peptide with Desirable Thermostability and Kv1.2 Channel-Specific Activity from Traditional Chinese Scorpion Medicinal Material” (Toxins, 2021)
Positions of bridges follow the written chain, without caps; N, C: chain ends. Residues, ends and D or L forms follow the SMILES beside them.

Assays:
[1] = Thermal stability of secondary structure by CD spectroscopy; assay type: physicochemical; conditions: 0.2 mg/mL in ddH2O, 20, 35, 50, 65, 80 and 95 °C, then returned to 20 °C, average of three scans
Method: In order to characterize the thermal stability of BmK86-P1, we analyzed the secondary structure of BmK86-P1 peptide in aqueous solutions at different temperatures (20 °C, 35 °C, 50 °C, 65 °C, 80 °C and 95 °C) by CD spectroscopy.
The secondary structures of BmK86-P1 and its mutants in water were measured by circular dichroism (CD) spectroscopy as previously described using a ChirascanTM V^100 spectrometer (Applied Photophysics, Surrey, UK). All the peptides were dissolved into ddH2O at a concentration of 0.2 mg/mL. At a range of wavelengths from 180 to 260 nm, the absorption spectra of peptides were recorded at room temperature. The speed scanning was 1 nm/s with a response time of 1 s. […] (deg·cm^2·dmol^−1).

Kv1.3 channel = conditions: read-out: IC50, inhibition of the current of Kv1.3 channel; cited from earlier work
From the text: The BmK86 toxin gene was first discovered from the venom gland cDNA library of Mesobuthus martensii Karsch. It encodes a signal peptide with 22 amino acid residues and a mature toxin with 35 residues (Figure 6A). The stretch of six amino acids in the N-terminus of BmK86 was thought to be a signal peptide rather than the N-terminal portion of the mature peptide. […] BmK86 could inhibit the c ...

hKv1.2-T383V = biological target: T1, hKv1.2-T383V (Homo sapiens, UniProt P16389, T383V); experiment: Whole-cell patch clamp, hKv1.2 channel mutant T383V; assay type: cell-based; conditions: 100 nM peptide, HEK293T, mean ± S.E., n ≥ 3, SEM
T1 construct: expressed in transfected cells; host or cells: HEK293T
T1 sequence (P16389 whole entry T383V): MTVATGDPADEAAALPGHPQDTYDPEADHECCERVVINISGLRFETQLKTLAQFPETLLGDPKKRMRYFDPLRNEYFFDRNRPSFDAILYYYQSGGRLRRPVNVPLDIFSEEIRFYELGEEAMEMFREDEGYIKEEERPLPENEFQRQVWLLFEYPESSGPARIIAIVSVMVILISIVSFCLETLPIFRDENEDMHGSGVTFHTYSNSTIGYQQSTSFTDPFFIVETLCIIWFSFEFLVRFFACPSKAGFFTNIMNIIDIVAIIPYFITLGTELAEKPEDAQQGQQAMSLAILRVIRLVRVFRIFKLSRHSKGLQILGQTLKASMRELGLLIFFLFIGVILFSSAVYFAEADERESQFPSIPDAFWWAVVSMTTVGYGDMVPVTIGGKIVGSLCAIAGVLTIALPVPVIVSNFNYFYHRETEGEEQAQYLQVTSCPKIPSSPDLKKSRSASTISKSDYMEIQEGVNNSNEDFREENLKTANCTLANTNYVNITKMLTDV
Method: (§1) To determine the functional sites of the hKv1.2 channel responsible for the selectivity of BmK86-P1, six hKv1.2 mutants were obtained based on sequence differences between the pore regions of the hKv1.2 and hKv1.1 channels (Figure 4A). Then, the activities of 100 nM BmK86-P1 on these six mutant channels were tested. […] The other three mutant channels (hKv1.2-D352E, hKv1.2-R354A and hKv1.2-P359S) still kept similar sensitivities toward BmK86-P1 compared with the wild-type hKv1.2 channel (Figure 4H,I,K,N).
(§2) All potassium channel expression vectors were given by others or constructed by ourselves. HEK293T cells were cultured in Dulbecco’s modified Eagle medium (Gibco, Pittsburgh, PA, USA) with 10% fetal bovine serum and penicillin/streptomycin (100 units/mL) in a 5% CO2 incubator at 37 °C. Potassium channel expression vectors and pEGFP-N1 were co-transfected into HEK293T cells using TurboFect in vitro Transfection Reagent (Thermo Scientific, Waltham, MA, USA) according to the manufacturer’s instructions. The potassium currents were recorded after transfection for 1 to 3 days.
(§3) The channel currents were measured and recorded by whole-cell patch clamp technology according to previously published references. […] The channel currents were recorded at room temperature (~25 °C) using an EPC 10 patch clamp amplifier. […]

hKv1.2 channel = biological target: T2, hKv1.2 channel (Homo sapiens, UniProt P16389); experiment: Whole-cell patch clamp, hKv1.2 channel overexpressed in HEK293T cells; assay type: cell-based; conditions: mean ± S.E., n ≥ 3, SEM
T2 construct: expressed in transfected cells; host or cells: HEK293T
T2 sequence (P16389 whole entry): as the sequence (P16389 whole entry T383V) above, with V383T counted along it
Method: (§4) To investigate the electrophysiological activities of BmK86-P1, the whole-cell patch clamp technique was applied to test the effects of BmK86-P1 on multiple potassium channels. The hKv1.1, hKv1.2, hKv1.3, hKv1.6, hKv3.2, mKv4.1, rKv4.2, rKv4.3 and hERG channels were overexpressed in HEK293T cells, then the inhibitory effects of BmK86-P1 at 1 μM on these potassium channels were measured. […] To further investigate the affinity of BmK86-P1 inhibiting the hKv1.2 channel, a dose-dependent study was performed by examining the inhibitory effects of different concentrations of BmK86-P1.
as §2
The channel currents were measured and recorded by whole-cell patch clamp technology according to previously published references. The internal patch pipette solution and the bath solution were prepared as previously described. All the test peptides were dissolved into bath solution supplemented with 0.01% BSA. An MPS-2 multichannel microperfusion system (INBIO Inc., Wuhan, China) was applied to change the external recording bath solution. The infusion time of the peptides should not exceed 20 min to maintain good cell conditions during electrophysiological recordings. The channel currents were recorded at room temperature (~25 °C) using an EPC 10 patch clamp amplifier. The results were presented as the means ± S.E., and in every sample at least three cells (n ≥ 3) were examined.
(§5) The ClampFit (Molecular Devices, Sunnyvale, CA, USA) and SigmaPlot software ([…], Chicago, IL, USA) were used to analyze the recorded data. […]

hKv1.1 channel = biological target: T3, hKv1.1 channel (Homo sapiens, UniProt Q09470); experiment: Whole-cell patch clamp, hKv1.1 channel overexpressed in HEK293T cells; assay type: cell-based; conditions: mean ± S.E., n ≥ 3, SEM
T3 construct: expressed in transfected cells; host or cells: HEK293T
T3 sequence (Q09470 whole entry): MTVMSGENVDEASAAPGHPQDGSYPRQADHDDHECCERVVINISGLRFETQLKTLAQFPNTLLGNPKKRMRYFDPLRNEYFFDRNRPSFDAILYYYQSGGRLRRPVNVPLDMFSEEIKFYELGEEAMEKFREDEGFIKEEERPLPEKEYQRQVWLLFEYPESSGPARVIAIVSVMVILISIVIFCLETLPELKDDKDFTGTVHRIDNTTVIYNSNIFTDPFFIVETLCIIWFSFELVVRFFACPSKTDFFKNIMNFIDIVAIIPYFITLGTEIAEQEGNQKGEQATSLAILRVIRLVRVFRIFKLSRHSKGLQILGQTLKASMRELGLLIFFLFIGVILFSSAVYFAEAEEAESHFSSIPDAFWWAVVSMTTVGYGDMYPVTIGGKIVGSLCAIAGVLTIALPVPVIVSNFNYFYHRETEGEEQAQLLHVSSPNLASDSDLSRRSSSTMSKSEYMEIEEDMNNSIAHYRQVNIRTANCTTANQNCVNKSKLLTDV
Method: as §4
(§6) All potassium channel expression vectors were given by others or constructed by ourselves. HEK293T cells were cultured in Dulbecco’s modified Eagle medium (Gibco, Pittsburgh, PA, USA) with 10% fetal bovine serum and penicillin/streptomycin (100 units/mL) in a 5% CO2 incubator at 37 °C. […] The potassium currents were recorded after transfection for 1 to 3 days.
as §3, §5

hKv3.2 channel = biological target: T4, hKv3.2 channel (Homo sapiens, UniProt Q96PR1); experiment: Whole-cell patch clamp, hKv3.2 channel overexpressed in HEK293T cells; assay type: cell-based; conditions: 1 μM peptide, mean ± S.E., n ≥ 3, SEM
T4 construct: expressed in transfected cells; host or cells: HEK293T
T4 sequence (Q96PR1 1-638): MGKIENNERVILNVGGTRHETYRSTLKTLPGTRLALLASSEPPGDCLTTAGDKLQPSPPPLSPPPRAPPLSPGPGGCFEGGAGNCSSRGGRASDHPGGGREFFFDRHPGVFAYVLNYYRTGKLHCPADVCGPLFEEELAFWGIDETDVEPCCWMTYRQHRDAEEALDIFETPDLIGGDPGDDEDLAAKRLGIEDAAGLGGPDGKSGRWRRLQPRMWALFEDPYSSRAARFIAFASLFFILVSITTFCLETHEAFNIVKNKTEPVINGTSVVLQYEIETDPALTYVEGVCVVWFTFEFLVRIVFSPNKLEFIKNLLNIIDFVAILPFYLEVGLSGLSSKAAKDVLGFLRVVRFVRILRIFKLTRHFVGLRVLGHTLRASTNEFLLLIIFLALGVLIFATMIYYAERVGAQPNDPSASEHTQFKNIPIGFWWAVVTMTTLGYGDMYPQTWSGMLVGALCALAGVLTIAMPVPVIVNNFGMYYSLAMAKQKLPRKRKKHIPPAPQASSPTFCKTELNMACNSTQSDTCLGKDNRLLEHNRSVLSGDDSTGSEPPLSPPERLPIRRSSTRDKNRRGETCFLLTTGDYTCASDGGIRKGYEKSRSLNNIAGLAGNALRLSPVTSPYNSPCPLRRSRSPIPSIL
Method: as §4, §6, §3, §5

hKv1.2-Q357H = biological target: T5, hKv1.2-Q357H (Homo sapiens, UniProt P16389, Q357H); experiment: Whole-cell patch clamp, hKv1.2 channel mutant Q357H; assay type: cell-based; conditions: 100 nM peptide, HEK293T, mean ± S.E., n ≥ 3, SEM
T5 construct: expressed in transfected cells; host or cells: HEK293T
T5 sequence (P16389 whole entry Q357H): as the sequence (P16389 whole entry T383V) above, with Q357H, V383T counted along it
Method: as §1, §2, §3

hKv1.6 channel = biological target: T6, hKv1.6 channel (Homo sapiens, UniProt P17658); experiment: Whole-cell patch clamp, hKv1.6 channel overexpressed in HEK293T cells; assay type: cell-based; conditions: 1 μM peptide, mean ± S.E., n ≥ 3, SEM
T6 construct: expressed in transfected cells; host or cells: HEK293T
T6 sequence (P17658 whole entry): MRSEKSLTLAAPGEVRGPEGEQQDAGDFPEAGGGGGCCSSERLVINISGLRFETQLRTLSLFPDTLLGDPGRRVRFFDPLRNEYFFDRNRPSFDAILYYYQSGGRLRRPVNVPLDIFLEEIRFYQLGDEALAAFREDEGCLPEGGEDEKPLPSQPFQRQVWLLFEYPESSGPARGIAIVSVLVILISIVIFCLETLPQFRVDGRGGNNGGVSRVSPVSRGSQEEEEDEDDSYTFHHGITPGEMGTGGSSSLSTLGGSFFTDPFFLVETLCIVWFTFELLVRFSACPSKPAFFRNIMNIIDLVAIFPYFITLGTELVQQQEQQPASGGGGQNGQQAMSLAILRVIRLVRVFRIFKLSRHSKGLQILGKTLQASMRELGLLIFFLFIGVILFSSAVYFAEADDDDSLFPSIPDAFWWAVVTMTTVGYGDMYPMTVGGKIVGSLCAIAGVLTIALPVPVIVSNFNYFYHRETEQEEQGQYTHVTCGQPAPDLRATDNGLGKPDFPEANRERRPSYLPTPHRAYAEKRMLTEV
Method: as §4, §6, §3, §5

[2] = 1 μM peptide, room temperature (~25 °C)

SMILES: CC[C@H](C)[C@@H]1NC(=O)[C@@H]2CSSC[C@H](NC(=O)[C@H](C)N)C(=O)N[C@@H](CO)C(=O)N[C@@H](CCCCN)C(=O)N3CCC[C@H]3C(=O)N[C@H]3CSSC[C@H](NC(=O)[C@H](CCCNC(=N)N)NC(=O)CNC(=O)[C@H](CC(N)=O)NC1=O)C(=O)N[C@@H](Cc1c[nH]cn1)C(=O)N[C@H](C(=O)N[C@@H](Cc1ccc(O)cc1)C(=O)N[C@@H](Cc1ccc(O)cc1)C(=O)O)CSSC[C@H](NC(=O)[C@H](Cc1ccc(O)cc1)NC(=O)[C@H](CCCCN)NC(=O)[C@H](CCCNC(=N)N)NC3=O)C(=O)N[C@@H]([C@@H](C)CC)C(=O)N[C@@H](CC(=O)O)C(=O)N[C@@H](CCCCN)C(=O)NCC(=O)N[C@@H](C)C(=O)N[C@@H](CCCNC(=N)N)C(=O)N[C@@H](CC(N)=O)C(=O)NCC(=O)N[C@@H](CCCCN)C(=O)N2 [BmK86-P1] (H-ACSKPCRKYCIDKGARNGKCINGRCHCYY-OH; disulfide 2-20, 6-25, 10-27 (inferred); N-terminus and C-terminus assumed)
- thermal stability of secondary structure [1]: thermally stable
- IC50 (Kv1.3 channel): 597 ± 114 nM
- inhibition of hKv1.2-T383V channel currents (hKv1.2-T383V): 32.1 ± 2.8%
- inhibition of hKv1.2 channel currents (hKv1.2 channel; 100 nM peptide): 74.1 ± 3.2%
- inhibition of hKv1.2 channel currents (hKv1.2 channel; [2]): 88.6 ± 2.2%
- IC50 (hKv1.2 channel; dose-response curve fitted with Hill equation, read-out: IC50, inhibition of the hKv1.2 channel): 28.5 ± 6.3 nM
- inhibition of hKv1.1 channel currents (hKv1.1 channel; 100 nM peptide): 0.7 ± 0.1%
- inhibition of hKv1.1 channel currents (hKv1.1 channel; [2]): 4.4 ± 2.6%
- inhibition of hKv3.2 channel currents (hKv3.2 channel): 3.8 ± 0.7%
- inhibition of hKv1.2-Q357H channel currents (hKv1.2-Q357H): 37.3 ± 1.5%
- inhibition of hKv1.6 channel currents (hKv1.6 channel): 11.0 ± 1.2%
